Source: article PMC10661964 (Current Drug Metabolism, 2023)
pIC50: −log10 of the molar value. Like-named read-outs stand apart in the source and are kept apart here.

Tests used:
[1] = Quantification of nifurtimox and metabolites in human urine (LC-HRMS); format: in vivo; settings: for AE,urine(0–24h), fasted patients: mean of 6 fasted patients with Chagas disease; for AE,urine(0–24h), fasted patients / AE,urine(0–24h), fed patients: single oral 120 mg nifurtimox; for AE,urine(0–24h), fed patients: mean of 6 fed patients with Chagas disease
Method: Urine samples were collected from fasted and fed patients pre-dose (0 h) and at four post-dose intervals (0-4, 4-8, 8-12, and 12-24 h) and stored frozen until required. For analysis, urine samples were thawed at room temperature and homogenized by vortex mixing. […] Equal volumes (75 µL) of an internal standard solution of [^2H8]-nifurtimox dissolved in water (10 µg/mL) were added to each urine, calibration, or control sample and mixed thoroughly. Samples from 6 patients were then analyzed using liquid chromatography-high-resolution mass spectrometry (LC-HRMS) with a 1290 Infinity LC system equipped with a diode array detector and an Orbitrap Fusion™ Lumos™ Tribrid™ HRMS (Thermo Fisher Scientific, Bremen, Germany) with a heated electrospray ionization source. For quantification, the LC conditions were as described above for analysis of rat plasma, and the HRMS parameters were: mass range, 120-600 Da in full scan mode and all ion fragmentation in positive ionization mode; resolution, 240,000; ion source voltage, 3500 V; capillary temperature, 300°C; source temperature, 60°C.
The system was calibrated using the relative peak area as a function of concentration, which was obtained by linear regression. Quantification was performed on a mass basis (μg/mL), with the final calculation for the percentage of dose excreted in urine made on a molar basis to account for the substantial differences (up to ~2.5-fold) in the molecular masses of the compounds of interest. The analytical precision for all analytes was in the range of 1.1% to 4.4%, with an accuracy of 94% to 107%. All concentrations in μg/mL were back-calculated to nmol/mL, and these concentrations were then used to calculate a total molar amount based on the urine volume collected during each interval.

[2] = Quantification of nifurtimox and metabolites in rat plasma after a single high dose (200 mg/kg); format: in vivo, Wistar rats; settings: for AUC(0-t) / AUC / Cmax / Tmax / half-life: Wistar, rat, plasma, po, 200 mg/kg; for ratio of rat:human AUC(0-24): rat 200 mg/kg oral vs human 120 mg oral
Method: Blood cells and plasma were then separated by centrifugation, and the plasma was stored at ≤-15°C until required. For analysis, plasma samples were thawed at room temperature and homogenized by vortex mixing. Plasma samples were pooled separately for male and female rats by combining 25 µL from each of the 4 animals for each timepoint. […] To each pooled plasma (100 µL), calibration, or control sample, 300 µL of an internal standard solution containing [^2H8]-nifurtimox (500 ng/mL) and [^2H3]-M-6 (2500 ng/mL) in acetonitrile + 0.5% formic acid in water (v/v) was added and mixed thoroughly. All samples were then centrifuged (20,000 g, 5 min) to precipitate the protein. The supernatant was analyzed using a 1290 Infinity LC system equipped with a diode array detector and an Orbitrap Q-Exactive Plus HRMS (Thermo Fisher Scientific, Bremen, Germany) with a heated electrospray ionization source. […] The mobile phase gradient was: 0 min, 0% B; 2.5 min, 0% B; 3 min, 20% B; 8 min, 45% B; 9 min, 90% B; 10.1 min, 90% B; 12 min, 0% B; 13 min, 0% B. The following HRMS parameters were used: mass range, 120-200 Da (0-2.5 min) and 230-600 Da (2.5-13 min) in full scan mode; resolution, 280,000; ion source voltage, 3500 V; capillary temperature, 300°C; source temperature, 60°C.
The calibration was based on the relative peak area as a function of concentration obtained by linear regression. […] Thus, all concentrations in μg/mL were back-calculated to nmol/mL. The PK parameters for each analyte were calculated using ToxKin software, as described above.

CYP 3A4 [3] = molecular target: CYP 3A4 (Homo sapiens, UniProt P08684); assay: CYP inhibition with probe substrates; format: in vitro ADME
Text: (§1) The inhibition of cytochrome P450 (CYP) isoforms and a range of cellular transporters (except multidrug and toxin extrusion [MATE] proteins), as well as the induction of CYP isoforms were investigated using previously described methods.

CYP 1A2 = assay: CYP induction (mRNA and CYP activity); format: in vitro ADME, human
Text: as §1

CYP 2B6 = assay: CYP induction (mRNA and CYP activity); format: in vitro ADME, human
Text: as §1

CYP 3A4 [4] = assay: CYP induction (mRNA and CYP activity); format: in vitro ADME, human
Text: as §1

[5] = female, read-out: AUC(0–24), female animals
[6] = female, read-out: AUC, female animals
[7] = female, read-out: Cmax, female animals
[8] = female, read-out: tmax, female animals
[9] = female, read-out: t½, female animals (converted)
[10] = male, read-out: AUC(0–24), male animals
[11] = male, read-out: AUC, male animals
[12] = male, read-out: Cmax, male animals
[13] = male, read-out: tmax, male animals
[14] = male, read-out: t½, male animals (converted)
[15] = 3A4 (M), 30-min preincubation, probe substrate midazolam, read-out: Pre- IC50 (+ NADPH)
[16] = 3A4 (M), coincubation, probe substrate midazolam, read-out: Co- IC50
[17] = 3A4 (M), probe substrate midazolam
[18] = 3A4 (T), 30-min preincubation, probe substrate testosterone, read-out: Pre- IC50 (+ NADPH)
[19] = 3A4 (T), coincubation, probe substrate testosterone, read-out: Co- IC50
[20] = 3A4 (T), probe substrate testosterone

Chain of CYP 3A4 (Homo sapiens, UniProt P08684) (P08684 whole entry, canonical isoform): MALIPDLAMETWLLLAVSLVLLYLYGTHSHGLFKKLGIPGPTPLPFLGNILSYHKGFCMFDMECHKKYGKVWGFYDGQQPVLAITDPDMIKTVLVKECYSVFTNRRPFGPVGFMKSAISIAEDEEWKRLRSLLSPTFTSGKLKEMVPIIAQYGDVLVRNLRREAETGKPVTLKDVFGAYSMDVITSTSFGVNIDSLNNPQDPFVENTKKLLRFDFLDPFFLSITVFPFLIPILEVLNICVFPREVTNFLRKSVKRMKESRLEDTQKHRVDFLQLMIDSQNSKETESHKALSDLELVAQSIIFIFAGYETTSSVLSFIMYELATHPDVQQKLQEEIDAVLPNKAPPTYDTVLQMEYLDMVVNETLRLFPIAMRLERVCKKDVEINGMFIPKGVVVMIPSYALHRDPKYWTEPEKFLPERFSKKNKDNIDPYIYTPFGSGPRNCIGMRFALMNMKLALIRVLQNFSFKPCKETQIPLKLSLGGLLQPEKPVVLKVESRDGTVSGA

SMILES	AE,urine(0–24h), fasted patients [1]	AE,urine(0–24h), fed patients [1]	AUC(0-t) [2, 5]	AUC [2, 6]	Cmax [2, 7]	Tmax [2, 8]	half-life [2, 9]	AUC(0-t) [2, 10]	AUC [2, 11]	Cmax [2, 12]	Tmax [2, 13]	half-life [2, 14]	IC50 (CYP 3A4 [3]; [15])	IC50 (CYP 3A4 [3]; [16])	TDI (time-dependent inhibition) (CYP 3A4 [3]; [17])	pIC50 (CYP 3A4 [3]; [18])	pIC50 (CYP 3A4 [3]; [19])	TDI (time-dependent inhibition) (CYP 3A4 [3]; [20])	concentration up to which no induction (mRNA and CYP activity) (CYP 1A2)	concentration up to which no induction (mRNA and CYP activity) (CYP 2B6)	also measured
CC1CS(=O)(=O)CCN1n1cc(SCC(N)C(=O)O)ccc1=O (stereo not drawn) [M-4]	5.9 % of dose	12.3 % of dose	4.84 µM·h	7.41 µM·h	0.568 µM	3 h	18.6 h	4.78 µM·h	9.77 µM·h	0.338 µM	2 h	18.3 h	> 2e-05 M	> 2e-05 M	No	< 4.70	< 4.70	No	up to 80000 µg/L	up to 80000 µg/L	ratio of rat:human AUC(0-24) [2]: 2.0-2.1 fold; concentration up to which no induction (mRNA and CYP activity) (CYP 3A4 [4]): up to 80000 µg/L
CC1CS(=O)(=O)CCN1N (stereo not drawn) [M-6]	13.7 % of dose	20.8 % of dose	65.8 µM·h	96.1 µM·h	3.92 µM	3 h	13.5 h	78.4 µM·h	148 µM·h	3.65 µM	24 h	10.6 h	> 0.0001 M	> 0.0001 M	No	< 4.00	< 4.00	No	up to 90000 µg/L	up to 90000 µg/L	ratio of rat:human AUC(0-24) [2]: 2.4-2.8 fold; concentration up to which no induction (mRNA and CYP activity) (CYP 3A4 [4]): up to 90000 µg/L
CC1CS(=O)(=O)CCN1/N=C/c1ccc([N+](=O)[O-])o1 (stereo not drawn) [Nifurtimox, (E)-N-(3-methyl-1,1-dioxo-1,4-thiazinan-4-yl)-1-(5-nitrofuran-2-yl) methanimine, reference compound]	0.03 % of dose	0.07 % of dose	117 µM·h	121 µM·h	18.3 µM	1 h	5 h	138 µM·h	184 µM·h	10.1 µM	2 h	5 h	4.8e-05 to 4.9e-05 M	> 5e-05 M	No	< 4.30	< 4.30	No	up to 30000 µg/L	up to 30000 µg/L	unchanged nifurtimox in urine, on average ([1]; fed and fasted patients, single oral 120 mg): less than 0.1 % of the administered dose; concentration up to which no induction (mRNA and CYP activity) (CYP 3A4 [4]): up to 30000 µg/L
